The values below come from patent publication US20060019932A1, “Treatment of rheumatoid arthritis by inhibition of pde4” (priority 2002, published 2006).

Test [1] concerns the target T1, human recombinant phosphodiesterase IVa (met-248) (Homo sapiens, UniProt P27815).
T1 construct: human recombinant phosphodiesterase IVa (met-248); GST; made in house; host or cells: baculovirus/Sf-9
In words: SPA based PDE activity assay. In kind it is biochemical. The protocol:
Compounds which inhibit the hydrolysis of cAMP to AMP by the type-IV cAMP-specific phosphodiesterases were screened in a 96-well plate format as follows:
In a 96 well-plate at 30° C. the test compound was added (dissolved in 2 μL DMSO), 188 μL of substrate buffer containing [2,8-^3H] adenosine 3′,5′-cyclic phosphate (cAMP, 100 nM to 50 μM), 10 mM MgCl2, 1 mM EDTA, 50 mM Tris, pH 7.5. The reaction was initiated by the addition of human recombinant PDE4 (the amount was controlled so that ˜10% product was formed in 10 min.). The reaction was stopped after 10 min. by the addition of 1 mg of PDE-SPA beads (Amersham Pharmacia Biotech, Inc., Piscataway, N.J.). The product AMP generated was quantified on a Wallac Microbeta® 96-well plate counter (EG&G Wallac Co., Gaithersburg, Md.). The signal in the absence of enzyme was defined as the background. 100% activity was defined as the signal detected in the presence of enzyme and DMSO with the background subtracted. Percentage of inhibition was calculated accordingly. IC50 value was approximated with a non-linear regression fit using the standard 4-parameter/multiple binding sites equation from a ten point titration.

Test [2] relates to collagen-induced arthritis in DBA mice. Put plainly: Collagen-induced arthritis in DBA mice, cumulative score. In kind it is in vivo. As to conditions: FIG. 1, score against days dosed, comparable to indomethacin. From the text:
FIG. 1 is a graphical plot of the cumulative score in collagen-induced arthritis in DBA mice plotted against days dosed for vehicle, Roflumilast, Indomethacin, and Example 1.

For another test, the system named is GM-CSF. Put plainly: Inhibition of LPS or Con A stimulated human whole blood: GM-CSF. The test is classed as cell-based. As to conditions: read-out: Inhibition of LPS or Con A stimulate human whole blood, GM-CSF. From the text: (§1) Rheumatoid arthritis (RA) is a systemic autoimmune disease resulting in progressive joint destruction and associated pain. Three major contributors to its pathology are joint inflammation, abnormal cellular and humoral responses, and synovial hyperplasia. T-lymphocytes (T-cells) and monocytes are the major cell types recovered from the synovial tissue of RA patients and experimental evidence confirms that pro-inflammatory cytokines produced by these cells are the major contributors to joint pathogenesis. The inventors have analyzed human whole blood for the production of various cytokines including Th1 and Th2 cytokines following stimulation with lipoplysaccharide (LPS) and Concanavalin A (ConA) in the presence or absence of PDE4 inhibitors. […] TNF-α sequestrants alone have shown clinical efficacy in RA. Thus, if sufficient levels of inhibition are achieved, PDE4 inhibitor-mediated TNF-α suppression would have efficacy in RA.
(§2) Inhibition of various Th1 and monocyte derived cytokines which may play a role in human rheumatoid arthritis.

In another test the test system is TNF-α. In words: Inhibition of LPS or Con A stimulated human whole blood: TNF-α. The test is classed as cell-based. The note with it: read-out: Inhibition of LPS or Con A stimulate human whole blood, TNF-α.
Text: as §1
Whole blood provides a protein and cell-rich milieu appropriate for the study of biochemical efficacy of anti-inflammatory compounds such as PDE4-selective inhibitors. […] Upon stimulation with LPS, activated monocytes express and secrete TNF-α up to 8 hours and plasma levels remain stable for 24 hours. […]

For a further test, the system named is IL-2. Put plainly: Inhibition of LPS or Con A stimulated human whole blood: IL-2. In kind it is cell-based. As to conditions: read-out: Inhibition of LPS or Con A stimulate human whole blood, IL-2.
Text: as §1, §2

For a further test, the system named is IL-12. Put plainly: Inhibition of LPS or Con A stimulated human whole blood: IL-12. In kind it is cell-based. As to conditions: read-out: Inhibition of LPS or Con A stimulate human whole blood, IL-12.
Text: as §1, §2

A further test has as its system IFNγ. Put plainly: Inhibition of LPS or Con A stimulated human whole blood: IFNγ. In kind it is cell-based. As to conditions: read-out: Inhibition of LPS or Con A stimulate human whole blood, IFNγ.
Text: as §1, §2

Where two headings read alike, the source gives them in different places.

T1 sequence (P27815 248-886): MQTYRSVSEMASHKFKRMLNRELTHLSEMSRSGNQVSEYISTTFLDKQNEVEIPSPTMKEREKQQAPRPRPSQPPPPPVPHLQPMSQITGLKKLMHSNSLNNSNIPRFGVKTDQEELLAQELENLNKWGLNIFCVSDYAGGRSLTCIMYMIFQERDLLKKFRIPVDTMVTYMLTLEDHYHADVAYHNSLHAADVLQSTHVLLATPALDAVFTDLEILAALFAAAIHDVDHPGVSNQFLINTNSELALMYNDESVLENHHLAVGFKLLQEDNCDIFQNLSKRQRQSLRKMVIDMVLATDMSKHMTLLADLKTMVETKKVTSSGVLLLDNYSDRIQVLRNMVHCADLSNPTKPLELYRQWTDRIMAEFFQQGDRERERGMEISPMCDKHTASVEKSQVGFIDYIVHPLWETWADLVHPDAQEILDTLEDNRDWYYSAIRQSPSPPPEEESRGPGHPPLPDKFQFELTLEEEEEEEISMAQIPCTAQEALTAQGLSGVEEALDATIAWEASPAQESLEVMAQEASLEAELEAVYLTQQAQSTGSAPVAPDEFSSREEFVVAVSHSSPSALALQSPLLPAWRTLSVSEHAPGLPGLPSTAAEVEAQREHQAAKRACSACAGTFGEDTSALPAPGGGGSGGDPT

Take `CC(C)NC(=O)/C(=C/c1cccc(-c2cc(C(C)(C)C#N)cc3cccnc23)c1)c1ccc(S(C)(=O)=O)cc1` [Example 1]: the IC50 in test [1] (100 nM cAMP, purified GST fusion protein of human recombinant PDE IVa (met-248), baculovirus/Sf-9, read-out: IC50) amounted to 0.76 nM. For the same compound, the “cumulative score in collagen-induced arthritis” value in test [2] is “low cumulative scores”.
As to `Cc1c[n+]([O-])ccc1CC(c1ccc(C(O)(C(F)(F)F)C(F)(F)F)cc1)c1ccc(OC(F)F)c(OC(F)F)c1` (stereo not drawn) [Example 2], the IC50 with GM-CSF was found to be 70 nM; in the test on TNF-α it was 50 nM; with IL-2 it was 300 nM; with IL-12 it was 130 nM; in test [1], 1.31 nM; with IFNγ, 50 nM.
For `O=C(Nc1c(Cl)cncc1Cl)c1ccc(OC(F)F)c(OCC2CC2)c1` [Roflumilast, N-(3,5-dichloropyrid-4-yl)-3-cyclopropylmethoxy-4-difluoromethoxybenzamide, reference compound], in test [2], the “cumulative score in collagen-induced arthritis” value is given as “low cumulative scores”.
